Literature values, collected in paper PMC10114980, “Triple targeting of mutant EGFR^L858R/T790M, COX-2, and 15-LOX: design and synthesis of novel quinazolinone tethered phenyl urea derivatives for anti-inflammatory and anticancer evaluation” (Journal of Enzyme Inhibition and Medicinal Chemistry, 2023).

Test system: EGFR
Conditions: Figure 2; cited from earlier work

Row | Structure (SMILES) | IC50
1 | Cc1cccc(Cl)c1NC(=O)Nc1ccc(-c2nc(NCCN(C)C)c3ccccc3n2)cc1 [I] | 56 nM
2 | O=C(CNc1ccc(Cl)cc1)Cn1c(-c2ccccc2)nc2ccccc2c1=O [G] | 81 nM
